Assays:
Phytophthora infestans [1] = experiment: microbe, parasite or virus in culture; type: cell-based; conditions: in Secale cereale, 168 h, read-out: control compared to the untreated check
Phytophthora infestans [2] = experiment: whole plant or invertebrate; type: in vivo, Phytophthora infestans on tomato plants; conditions: in Solanum lycopersicum, 24 h, read-out: control compared to the untreated check
Plasmopara viticola = experiment: Example B: Plasmopara viticola test in grape (greenhouse, preventive); type: in vivo; conditions: 24 h, grape seedlings sprayed one day before inoculation, disease severity rating, read-out: control compared to the untreated check
Description: Example B: Plasmopara viticola Test in Grape
The compound were dissolved in 2% DMSO/Acetone & then mixed with water containing emulsifier to a calibrated spray volume of 50 mL. The spray solutions were poured into spray bottles for further applications.
To test the preventive activity of compounds, 5 week old healthy grape seedlings, cv. Thompson seedless, raised in the greenhouse, were sprayed with the active compound preparation at the stated application rates inside spray cabinets using hallow cone nozzles. One day after treatment, the plants were inoculated with an inoculum suspension (sterile water) containing 6×10^4 Plasmopara viticola inoculum. The inoculated plants were then kept in a greenhouse chamber at 18-21° C. temperature and 95-100% relative humidity for disease expression.
A visual assessment of the performance of the compound was carried out by rating the disease severity (0-100% scale) on treated plants 3, 7 and 10 days after application. Efficacy (% control) of the compound was calculated by comparing the disease rating in the treatment with the one of the untreated control. The compounds were also assessed for their plant compatibility by recording symptoms like necrosis, chlorosis & stunting

O=C(COc1nccnc1C(F)(F)F)N1CCC(c2nc(C3=NOC(c4c(F)cccc4Cl)C3)cs2)CC1 (stereo not drawn) [Compound 1, 1-(4-(4-(5-(2-chloro-6-fluorophenyl)-4,5-dihydroisoxazol-3-yl)thiazol-2-yl)piperidin-1-yl)-2-((3-(trifluoromethyl)pyrazin-2-yl)oxy)ethan-1-one]
inhibition of growth at 30 ppm (Phytophthora infestans [1]): ≥ 70%
pest or weed control at 50 ppm (Phytophthora infestans [2]): ≥ 70%
pest or weed control at 50 ppm (Plasmopara viticola): ≥ 70%

O=C(COc1nccnc1C(F)(F)F)N1CCC(c2nc(C3=NOC(c4c(Cl)cc(Cl)cc4Cl)C3)cs2)CC1 (stereo not drawn) [Compound 2, 1-(4-(4-(5-(2,4,6-trichlorophenyl)-4,5-dihydroisoxazol-3-yl)thiazol-2-yl)piperidin-1-yl)-2-((3-(trifluoromethyl)pyrazin-2-yl)oxy)ethan-1-one]
inhibition of growth at 30 ppm (Phytophthora infestans [1]): ≥ 70%
pest or weed control at 50 ppm (Phytophthora infestans [2]): ≥ 70%
pest or weed control at 50 ppm (Plasmopara viticola): ≥ 70%

O=C(COc1nccnc1C(F)(F)F)N1CCC(c2nc(C3=NOC(c4c(Cl)cccc4Cl)C3)cs2)CC1 (stereo not drawn) [Compound 3, 1-(4-(4-(5-(2,6-dichlorophenyl)-4,5-dihydroisoxazol-3-yl)thiazol-2-yl)piperidin-1-yl)-2-((3-(trifluoromethyl)pyrazin-2-yl)oxy)ethan-1-one]
inhibition of growth at 30 ppm (Phytophthora infestans [1]): ≥ 70%
pest or weed control at 50 ppm (Phytophthora infestans [2]): ≥ 70%
pest or weed control at 50 ppm (Plasmopara viticola): ≥ 70%

O=C(COc1nccnc1C(F)(F)F)N1CCC(c2nc(C3=NOC(c4c(F)cccc4F)C3)sc2Cl)CC1 (stereo not drawn) [Compound 22, 1-(4-(5-chloro-2-(5-(2,6-difluorophenyl)-4,5-dihydroisoxazol-3-yl)thiazol-4-yl)piperidin-1-yl)-2-((3-(trifluoromethyl)pyrazin-2-yl)oxy)ethan-1-one]
pest or weed control at 50 ppm (Plasmopara viticola): ≥ 70%

O=C(COc1nccnc1C(F)(F)F)N1CCC(c2csc(C3=NOC(c4c(F)cccc4F)C3)n2)CC1 (stereo not drawn) [Compound 23, 1-(4-(2-(5-(2,6-difluorophenyl)-4,5-dihydroisoxazol-3-yl)thiazol-4-yl)piperidin-1-yl)-2-((3-(trifluoromethyl)pyrazin-2-yl)oxy)ethan-1-one]
inhibition of growth at 30 ppm (Phytophthora infestans [1]): ≥ 70%
pest or weed control at 50 ppm (Plasmopara viticola): ≥ 70%

COc1nc(OC)nc(OCC(=O)N2CCC(c3nc(C4=NOC(c5c(F)cccc5Br)C4)cs3)CC2)n1 (stereo not drawn) [Compound 110, 1-(4-(4-(5-(2-bromo-6-fluorophenyl)-4,5-dihydroisoxazol-3-yl)thiazol-2-yl)piperidin-1-yl)-2-((4,6-dimethoxy-1,3,5-triazin-2-yl)oxy)ethan-1-one]
inhibition of growth at 30 ppm (Phytophthora infestans [1]): ≥ 70%
pest or weed control at 50 ppm (Phytophthora infestans [2]): ≥ 70%
pest or weed control at 50 ppm (Plasmopara viticola): ≥ 70%

N#Cc1ccnc(OCC(=O)N2CCC(c3nc(C4=NOC(c5c(Cl)cccc5Cl)C4)cs3)CC2)n1 (stereo not drawn) [Compound 112, 2-(2-(4-(4-(5-(2,6-dichlorophenyl)-4,5-dihydroisoxazol-3-yl)thiazol-2-yl)piperidin-1-yl)-2-oxoethoxy)pyrimidine-4-carbonitrile]
inhibition of growth at 30 ppm (Phytophthora infestans [1]): ≥ 70%
pest or weed control at 50 ppm (Phytophthora infestans [2]): ≥ 70%
pest or weed control at 50 ppm (Plasmopara viticola): ≥ 70%

CS(=O)(=O)Oc1cccc(Cl)c1C1CC(c2csc(C3CCN(C(=O)COc4nccc(C#N)n4)CC3)n2)=NO1 (stereo not drawn) [Compound 113, 3-chloro-2-(3-(2-(1-(2-((4-cyanopyrimidin-2-yl)oxy)acetyl)piperidin-4-yl)thiazol-4-yl)-4,5-dihydroisoxazol-5-yl)phenyl methanesulfonate]
inhibition of growth at 30 ppm (Phytophthora infestans [1]): ≥ 70%
pest or weed control at 50 ppm (Phytophthora infestans [2]): ≥ 70%
pest or weed control at 50 ppm (Plasmopara viticola): ≥ 70%

N#Cc1ccnc(OCC(=O)N2CCC(c3nc(C4=NOC(c5c(Cl)cccc5C(F)(F)F)C4)cs3)CC2)n1 (stereo not drawn) [Compound 114, 2-(2-(4-(4-(5-(2-chloro-6-(trifluoromethyl)phenyl)-4,5-dihydroisoxazol-3-yl)thiazol-2-yl)piperidin-1-yl)-2-oxoethoxy)pyrimidine-4-carbonitrile]
inhibition of growth at 30 ppm (Phytophthora infestans [1]): ≥ 70%
pest or weed control at 50 ppm (Phytophthora infestans [2]): ≥ 70%
pest or weed control at 50 ppm (Plasmopara viticola): ≥ 70%

N#Cc1ccnc(OCC(=O)N2CCC(c3nc(C4=NOC(c5c(F)cccc5F)C4)cs3)CC2)n1 (stereo not drawn) [Compound 116, 2-(2-(4-(4-(5-(2,6-difluorophenyl)-4,5-dihydroisoxazol-3-yl)thiazol-2-yl)piperidin-1-yl)-2-oxoethoxy)pyrimidine-4-carbonitrile]
inhibition of growth at 30 ppm (Phytophthora infestans [1]): ≥ 70%
pest or weed control at 50 ppm (Phytophthora infestans [2]): ≥ 70%
pest or weed control at 50 ppm (Plasmopara viticola): ≥ 70%

N#Cc1ccnc(OCC(=O)N2CCC(c3nc(C4=NOC(c5c(F)cccc5Cl)C4)cs3)CC2)n1 (stereo not drawn) [Compound 118, 2-(2-(4-(4-(5-(2-chloro-6-fluorophenyl)-4,5-dihydroisoxazol-3-yl)thiazol-2-yl)piperidin-1-yl)-2-oxoethoxy)pyrimidine-4-carbonitrile]
inhibition of growth at 30 ppm (Phytophthora infestans [1]): ≥ 70%
pest or weed control at 50 ppm (Phytophthora infestans [2]): ≥ 70%
pest or weed control at 50 ppm (Plasmopara viticola): ≥ 70%

COc1cncc(OCC(=O)N2CCC(c3nc(C4=NOC(c5c(F)cccc5Br)C4)cs3)CC2)n1 (stereo not drawn) [Compound 120, 1-(4-(4-(5-(2-bromo-6-fluorophenyl)-4,5-dihydroisoxazol-3-yl)thiazol-2-yl)piperidin-1-yl)-2-((6-methoxypyrazin-2-yl)oxy)ethan-1-one]
inhibition of growth at 30 ppm (Phytophthora infestans [1]): ≥ 70%
pest or weed control at 50 ppm (Phytophthora infestans [2]): ≥ 70%
pest or weed control at 50 ppm (Plasmopara viticola): ≥ 70%

O=C(COc1nccnc1Cl)N1CCC(c2nc(C3=NOC(c4c(F)cccc4Br)C3)cs2)CC1 (stereo not drawn) [Compound 121, 1-(4-(4-(5-(2-bromo-6-fluorophenyl)-4,5-dihydroisoxazol-3-yl)thiazol-2-yl)piperidin-1-yl)-2-((3-chloropyrazin-2-yl)oxy)ethan-1-one]
inhibition of growth at 30 ppm (Phytophthora infestans [1]): ≥ 70%
pest or weed control at 50 ppm (Phytophthora infestans [2]): ≥ 70%
pest or weed control at 50 ppm (Plasmopara viticola): ≥ 70%

O=C(COc1nccnc1Cl)N1CCC(c2nc(C3=NOC(c4c(F)cccc4F)C3)cs2)CC1 (stereo not drawn) [Compound 122, 2-((3-chloropyrazin-2-yl)oxy)-1-(4-(4-(5-(2,6-difluorophenyl)-4,5-dihydroisoxazol-3-yl)thiazol-2-yl)piperidin-1-yl)ethan-1-one]
inhibition of growth at 30 ppm (Phytophthora infestans [1]): ≥ 70%
pest or weed control at 50 ppm (Phytophthora infestans [2]): ≥ 70%
pest or weed control at 50 ppm (Plasmopara viticola): ≥ 70%

O=C(COc1nccnc1Cl)N1CCC(c2nc(C3=NOC(c4c(Cl)cc(Cl)cc4Cl)C3)cs2)CC1 (stereo not drawn) [Compound 123, 2-((3-chloropyrazin-2-yl)oxy)-1-(4-(4-(5-(2,4,6-trichlorophenyl)-4,5-dihydroisoxazol-3-yl)thiazol-2-yl)piperidin-1-yl)ethan-1-one]
pest or weed control at 50 ppm (Phytophthora infestans [2]): ≥ 70%
pest or weed control at 50 ppm (Plasmopara viticola): ≥ 70%

O=C(COc1nccnc1Cl)N1CCC(c2nc(C3=NOC(c4c(Cl)cccc4Cl)C3)cs2)CC1 (stereo not drawn) [Compound 124, 2-((3-chloropyrazin-2-yl)oxy)-1-(4-(4-(5-(2,6-dichlorophenyl)-4,5-dihydroisoxazol-3-yl)thiazol-2-yl)piperidin-1-yl)ethan-1-one]
inhibition of growth at 30 ppm (Phytophthora infestans [1]): ≥ 70%
pest or weed control at 50 ppm (Phytophthora infestans [2]): ≥ 70%
pest or weed control at 50 ppm (Plasmopara viticola): ≥ 70%

O=C(COc1nccnc1Cl)N1CCC(c2nc(C3=NOC(c4c(F)cccc4Cl)C3)cs2)CC1 (stereo not drawn) [Compound 125, 1-(4-(4-(5-(2-chloro-6-fluorophenyl)-4,5-dihydroisoxazol-3-yl)thiazol-2-yl)piperidin-1-yl)-2-((3-chloropyrazin-2-yl)oxy)ethan-1-one]
pest or weed control at 50 ppm (Phytophthora infestans [2]): ≥ 70%
pest or weed control at 50 ppm (Plasmopara viticola): ≥ 70%

CS(=O)(=O)Oc1cccc(Cl)c1C1CC(c2csc(C3CCN(C(=O)COc4nccnc4Cl)CC3)n2)=NO1 (stereo not drawn) [Compound 127, 3-chloro-2-(3-(2-(1-(2-((3-chloropyrazin-2-yl)oxy)acetyl)piperidin-4-yl)thiazol-4-yl)-4,5-dihydroisoxazol-5-yl)phenyl methanesulfonate]
pest or weed control at 50 ppm (Phytophthora infestans [2]): ≥ 70%
pest or weed control at 50 ppm (Plasmopara viticola): ≥ 70%

From patent US12471596B2 (priority 2019, dated 2025)
